The text below walks through data of ChEMBL document CHEMBL5584246, “Novel dihydropyrimidines as promising EGFR & HER2 inhibitors: Insights from experimental and computational studies” (Eur J Med Chem, 2024).

Data set [1] in a line: Cytotoxicity against African green monkey Vero cells assessed as inhibition of cell growth measured after 3 days by MTT assay. The data set is classed as toxicity, cell-based. The following applies: African green monkey (Chlorocebus sabaeus). A general note: Tetrazolium dyes change colour on reduction, which living cells bring about.
Data set [2] in a line: Inhibition of HER2 expression in human MCF7 cells assessed as positive expression region (M2) at 1000 nM incubated for 24 hrs by flow cytometry analysis (reference value: 99.09%). The data set is classed as functional. (In flow cytometry, cells or beads pass a laser one at a time.)
The target in data set [3] is Epidermal growth factor receptor (Homo sapiens, UniProt P00533). Briefly: Inhibition of wild type EGFR (unknown origin) incubated for 40 mins in presence of ATP by kinase glo max assay. (Kinase-Glo reads ATP consumption through a luciferase reaction.)
Data set [4] in a line: Inhibition of EGFR expression in human MCF7 cells assessed as negative expression region (M1) at 100 nM incubated for 24 hrs by flow cytometry analysis (reference value: 0.66%). Type of data set: functional.
The nature of data set [5]: Inhibition of HER2 expression in human MCF7 cells assessed as negative expression region (M1) at 1000 nM incubated for 24 hrs by flow cytometry analysis (reference value: 0.98%). Type of data set: functional.
Data set [6] is described as follows: Inhibition of HER2 expression in human MCF7 cells assessed as negative expression region (M1) at 25 nM incubated for 24 hrs by flow cytometry analysis (reference value: 0.98%). The data set is classed as functional.
Data set [7] is described as follows: Inhibition of EGFR expression in human MCF7 cells assessed as negative expression region (M1) at 25 nM incubated for 24 hrs by flow cytometry analysis (reference value: 0.66%). Type of data set: functional.
The nature of data set [8]: Inhibition of EGFR expression in human MCF7 cells assessed as positive expression region (M2) at 25 nM incubated for 24 hrs by flow cytometry analysis (reference value: 99.36%). The data set is classed as functional.
Data set [9] can be described thus: Inhibition of HER2 expression in human MCF7 cells assessed as negative expression region (M1) at 100 nM incubated for 24 hrs by flow cytometry analysis (reference value: 0.98%). The data set is classed as functional.
Data set [10] in a line: Inhibition of EGFR expression in human MCF7 cells assessed as positive expression region (M2) at 100 nM incubated for 24 hrs by flow cytometry analysis (reference value: 99.36%). The data set is classed as functional.
A short description of data set [11]: Inhibition of HER2 expression in human MCF7 cells assessed as positive expression region (M2) at 25 nM incubated for 24 hrs by flow cytometry analysis (reference value: 99.09%). Type of data set: functional.
Data set [12] in a line: Inhibition of HER2 expression in human MCF7 cells assessed as positive expression region (M2) at 100 nM incubated for 24 hrs by flow cytometry analysis (reference value: 99.09%). Type of data set: functional.
Data set [13] is described as follows: Inhibition of EGFR expression in human MCF7 cells assessed as negative expression region (M1) at 1000 nM incubated for 24 hrs by flow cytometry analysis (reference value: 0.66%). The data set is classed as functional.
Data set [14] in a line: Inhibition of HER2 expression in human MCF7 cells assessed as negative expression region (M1) at 500 nM incubated for 24 hrs by flow cytometry analysis (reference value: 0.98%). Type of data set: functional.
A short description of data set [15]: Inhibition of EGFR expression in human MCF7 cells assessed as negative expression region (M1) at 50 nM incubated for 24 hrs by flow cytometry analysis (reference value: 0.66%). The data set is classed as functional.
Data set [16] can be described thus: Inhibition of EGFR expression in human MCF7 cells assessed as positive expression region (M2) at 1000 nM incubated for 24 hrs by flow cytometry analysis (reference value: 99.36%). The data set is classed as functional.
Data set [17] in a line: Inhibition of HER2 expression in human MCF7 cells assessed as positive expression region (M2) at 50 nM incubated for 24 hrs by flow cytometry analysis (reference value: 99.09%). The data set is classed as functional.
The subject of another data set is MCF7. Briefly: Cytotoxicity against human MCF7 cells assessed as inhibition of cell growth measured after 3 days by MTT assay. The data set is classed as functional, cell-based. The note with it: MCF7, 72 h.
Data set [18] in a line: Inhibition of HER2 expression in human MCF7 cells assessed as negative expression region (M1) at 50 nM incubated for 24 hrs by flow cytometry analysis (reference value: 0.98%). Type of data set: functional.
Data set [19] can be described thus: Inhibition of EGFR expression in human MCF7 cells assessed as positive expression region (M2) at 500 nM incubated for 24 hrs by flow cytometry analysis (reference value: 99.36%). The data set is classed as functional.
Data set [20] can be described thus: Inhibition of HER2 expression in human MCF7 cells assessed as positive expression region (M2) at 500 nM incubated for 24 hrs by flow cytometry analysis (reference value: 99.09%). The data set is classed as functional.
A short description of data set [21]: Inhibition of EGFR expression in human MCF7 cells assessed as positive expression region (M2) at 50 nM incubated for 24 hrs by flow cytometry analysis (reference value: 99.36%). The data set is classed as functional.
Data set [22] can be described thus: Inhibition of EGFR expression in human MCF7 cells assessed as negative expression region (M1) at 500 nM incubated for 24 hrs by flow cytometry analysis (reference value: 0.66%). Type of data set: functional.

Chain of Epidermal growth factor receptor (P00533 whole entry): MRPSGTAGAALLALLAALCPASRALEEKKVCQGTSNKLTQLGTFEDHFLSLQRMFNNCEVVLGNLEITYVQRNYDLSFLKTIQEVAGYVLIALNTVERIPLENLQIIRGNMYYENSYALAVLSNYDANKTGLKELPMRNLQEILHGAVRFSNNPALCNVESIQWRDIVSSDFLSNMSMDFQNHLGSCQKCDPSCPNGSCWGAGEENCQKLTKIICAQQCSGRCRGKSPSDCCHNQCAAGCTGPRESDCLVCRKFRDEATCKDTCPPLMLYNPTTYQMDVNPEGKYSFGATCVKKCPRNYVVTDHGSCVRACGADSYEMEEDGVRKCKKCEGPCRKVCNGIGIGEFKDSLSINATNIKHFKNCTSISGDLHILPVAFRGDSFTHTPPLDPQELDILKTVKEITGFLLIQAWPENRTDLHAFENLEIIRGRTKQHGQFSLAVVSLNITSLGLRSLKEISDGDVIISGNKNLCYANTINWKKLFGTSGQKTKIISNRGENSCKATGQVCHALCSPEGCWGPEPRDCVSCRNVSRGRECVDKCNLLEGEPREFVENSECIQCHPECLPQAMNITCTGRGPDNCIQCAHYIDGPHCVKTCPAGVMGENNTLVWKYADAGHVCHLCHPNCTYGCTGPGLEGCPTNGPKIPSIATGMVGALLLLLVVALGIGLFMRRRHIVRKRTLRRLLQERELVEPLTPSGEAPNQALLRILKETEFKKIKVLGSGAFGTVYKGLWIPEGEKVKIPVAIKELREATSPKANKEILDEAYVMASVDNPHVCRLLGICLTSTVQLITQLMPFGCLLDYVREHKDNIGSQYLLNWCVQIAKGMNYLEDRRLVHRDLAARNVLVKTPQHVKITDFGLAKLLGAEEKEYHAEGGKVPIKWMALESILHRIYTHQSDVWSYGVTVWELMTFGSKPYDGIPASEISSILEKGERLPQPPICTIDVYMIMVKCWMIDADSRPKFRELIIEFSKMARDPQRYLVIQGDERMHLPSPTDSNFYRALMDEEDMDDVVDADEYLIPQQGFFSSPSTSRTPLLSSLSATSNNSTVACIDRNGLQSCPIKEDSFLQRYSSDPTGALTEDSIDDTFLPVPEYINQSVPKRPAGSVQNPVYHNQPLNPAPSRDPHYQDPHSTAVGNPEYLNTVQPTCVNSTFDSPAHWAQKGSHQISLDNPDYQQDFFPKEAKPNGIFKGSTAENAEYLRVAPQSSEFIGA

For the compound `COc1ccc(NC(=O)C2=C(C)NC(=S)NC2c2ccc(OCc3ccccc3)c(OC)c2)c(OC)c1` (stereo unspecified), the IC50 (usually the concentration at which inhibition is half-maximal) at 3 days in data set [1] was determined as 52.9 µM. Further, the inhibition (as a rule, the relative decrease from the control value, in per cent) at 1 µM in data set [2] was 7.42%; in data set [5], 92.7%; in data set [13], 96%; in [16], 4.17%. Moreover, the IC50 stood at 0.0768 µM in data set [3] and 17 µM in the data set with MCF7. For the same compound, the inhibition at 0.1 µM stood at 80.5% in data set [4], 72.1% in [9], 20.1% in data set [10] and 28.3% in data set [12]. The inhibition at 0.025 µM in data set [6] amounted to 14.9%; in data set [7] it was 32.1%; in data set [8], 68.7%; in data set [11], 85.5%. The inhibition at 0.5 µM turned out to be 78.4% in data set [14], 17.4% in [19], 22.3% in data set [20] and 83.2% in data set [22]. In addition, the inhibition at 0.05 µM in data set [15] turned out to be 62.4%; in [17], 57.8%; in data set [18], 42.6%; in data set [21], 38.4%.
As for `COc1ccc(NC(=O)C2=C(C)NC(=O)NC2c2ccc(OC)c(OC)c2)c(OC)c1` (stereo unspecified), in [1], the IC50 at 3 days stood at 30.1 µM. Further, the inhibition at 1 µM worked out at 6.78% in data set [2], 93.4% in data set [5], 96.7% in [13] and 3.42% in [16]. Also, the IC50 was 0.0698 µM in [3] and 14.2 µM in the data set with MCF7. For the same compound, the inhibition at 0.1 µM amounted to 68.3% in data set [4], 79.3% in [9], 32.5% in data set [10] and 21% in data set [12]. The inhibition at 0.025 µM in [6] was 32.7%; in data set [7], 18.1%; in data set [8], 82.2%; in data set [11], 67.9%. In addition, the inhibition at 0.5 µM was determined as 89.9% in data set [14], 5.73% in data set [19], 10.3% in [20] and 94.4% in data set [22]. The inhibition at 0.05 µM is 40.2% in data set [15], 36.8% in [17], 63.8% in data set [18] and 60% in data set [21].
